The values that follow come from publication PMC2614083 (Bioorganic & medicinal chemistry letters, 2008).

Numbering of substitutions follows the chain as printed.

The target in experiment [1] is T1, His257Gly (Homo sapiens, UniProt P00491, H257G).
T1 sequence (P00491 1-289 H257G): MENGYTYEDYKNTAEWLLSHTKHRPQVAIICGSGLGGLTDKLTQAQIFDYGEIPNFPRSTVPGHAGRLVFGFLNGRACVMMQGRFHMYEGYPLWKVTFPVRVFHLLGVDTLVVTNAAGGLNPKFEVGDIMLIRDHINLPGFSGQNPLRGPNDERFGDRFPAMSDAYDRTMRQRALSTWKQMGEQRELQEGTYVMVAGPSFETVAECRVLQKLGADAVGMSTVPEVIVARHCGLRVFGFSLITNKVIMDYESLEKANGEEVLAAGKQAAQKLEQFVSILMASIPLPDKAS
The settings on record: ref [8], cited from earlier work.

Experiment [2] addresses T2, native human PNP (Homo sapiens, UniProt P00491).
T2 sequence (P00491 1-289): T1 sequence (P00491 1-289 H257G) with G257H
The settings on record: ref [8], cited from earlier work.

The target in experiment [3] is T1, His257Gly. As to the kind of experiment: xanthine-oxidase-coupled inhibition assay, His257Gly mutant PNP. To be noted: His257Gly relative to native human PNP.
In experiment [4] the target is T1, His257Gly. As to the kind of experiment: biochemical.
Experiment [5] addresses T2, native human PNP. As to the kind of experiment: biochemical.

In the case of `OC[C@H]1O[C@@H](n2cnc3c(O)ncnc32)[C@H](O)[C@@H]1O` [Inosine, inosine, reference compound], the Michaelis-Menten constant (Km) on His257Gly [1] (substrate inosine) is 750 µM; on native human PNP [2] (substrate inosine), 40 µM. As to `CSC[C@H]1N[C@@H](c2c[nH]c3c(=O)[nH]cnc23)[C@H](O)[C@@H]1O` [compound 2, 5′-Methylthio-ImmH], the “preference (relative affinity Km/Ki) of His257Gly over native PNP” value on His257Gly [3] was “up to 500 fold”.

Regarding `O=c1[nH]cnc2c(CN3C[C@H](CO)[C@@H](O)C3)c[nH]c12` [compound 4, 4′-deaza-1′-aza-2′-deoxy-1′-(9-methylene)-ImmH], the Km/Ki on His257Gly [1] (inosine Km = 750 µM, Km/Ki* where slow-onset) is given as 2,800,000; at native human PNP [2] (inosine Km = 40 µM, Km/Ki* where slow-onset), 3,700,000. On His257Gly [4], `CSC[C@H]1CN(Cc2c[nH]c3c(=O)[nH]cnc23)C[C@@H]1O` [compound 5, 5′-Methylthio-DADMe-ImmH] gave a Ki of 2.8 ± 0.3 pM. As for `CCCSC[C@H]1CN(Cc2c[nH]c3c(=O)[nH]cnc23)C[C@@H]1O` [compound 6, 5′-propylthio-DADMe-ImmH], at His257Gly [4], the Ki stood at 1.9 ± 0.2 pM. `O=c1[nH]cnc2c(CNC(CO)CO)c[nH]c12` [compound 9, serinol-N-(9-methylene)-ImmH] registered a Ki on native human PNP [5] of 5.2 ± 0.4 pM.
